{"source": "patent US9878046B2", "about": "“Adverse side-effects associated with administration of an anti-hyaluronan agent and methods for ameliorating or preventing the side-effects” (Halozyme, Inc., priority 2010, dated 2018)", "key": {"[1]": {"system": "BxPC3 pancreatic cancer cell line", "assay": "Antitumor activity in BxPC3 pancreatic cancer xenograft model", "format": "in vivo, human (xenograft in athymic female nude mice)", "experimental": "Tumor cells from the BxPC3 pancreatic cancer cell line were grown to approximately 80% confluency, trypsinized, collected, washed once in HBSS (Hank's balance salt solution, Mediatech Inc.), and re-suspended in 50% Matrigel in HBSS at 2×10^7 cells/mL on ice before inoculation into animals. Athymic female nude mice (average weight ˜20 g) were inoculated intramuscularly (IM) with 0.05 mL of cell suspension, peritibially, in the left hind leg (adjacent to the tibia periosteum). The tumors in the animals were assessed twice a week and allowed to grow to a mean tumor volume of approximately 250 mm^3 (Day −1; Table 13). Actual tumor volumes were determined using VisualSonics Vevo 770 high-resolution ultrasound.\nThe animals were randomly grouped into 6 groups of 8 animals per group (6+2 satellite mice) and treated with vehicle (API buffer), PEGPH20 (157,500 Units/kg, 4.5 mg/kg), low dose dexamethasone (1.25 mg/kg), high dose dexamethasone (5 mg/kg), PEGPH20 (4.5 mg/kg)+low dose dexamethasone (1.25 mg/kg) and PEGPH20 (4.5 mg/kg)+high dose dexamethasone (5 mg/kg). The dose and frequency of the PEGPH20 (or vehicle) intravenous injections was 157,500 Units/kg or approximately 4.5 mg/kg, on Days 0, 3, 7, 10, 13 and 17 for a total of 6 injections starting on Day 0 (dose volume of 0.1 mL). The doses and frequency of the dexamethasone intraperitonal injections was 1.25 mg/kg at the low dose and 5 mg/kg at the high dose, once a day until Day 17 (QDx17) with a dose volume of 0.1 mL.\nThe tumor volumes of all mice were measured pre-treatment on Days −4 and −1 (mean tumor volume of ˜250 mm^3) and on Days 4, 7, 11, 14 and 17 by capturing images using the VisualSonic ultrasound system and using an ultrasound imaging software program to calculate the tumor volume (Table 13). The percent tumor growth inhibition (% TGI) was calculated as described above in Example 9A."}, "[2]": {"system": "PC3 prostate carcinoma cell line", "assay": "Antitumor activity in PC3 prostate cancer xenograft model", "format": "in vivo, human (xenograft in athymic male nude mice)", "experimental": "Tumor cells from the PC3 prostate carcinoma cell line were grown to approximately 80% confluency then trypsinized, collected, washed once in HBSS (Hank's balance salt solution, Mediatech Inc.), then re-suspended in 50% Matrigel® in HBSS at 2×10^7 cells/mL on ice before inoculation into animals. Athymic male nude mice (Nu/Nu (Ncr); Taconic Farms; average weight ˜20 g) were inoculated intramuscularly (IM) with 0.05 mL of this cell suspension, peritibially, in the left hind leg (adjacent to the tibia periosteum). The implants in the animals were assessed twice a week and allowed to grow to a mean tumor volume of approximately 500 mm^3 (Day −2; Table 12). Actual tumor volumes were determined using VisualSonics Vevo 770 high-resolution ultrasound, using two perpendicular axial dimensions.\nAnimals were sorted randomly and grouped into 6 groups of 8 mice per group (6+2 satellite mice). Treatment groups were vehicle (API buffer), PEGPH20 (157,500 Units/kg, 4.5 mg/kg), low dose dexamethasone (1.25 mg/kg), high dose dexamethasone (5 mg/kg), PEGPH20 (4.5 mg/kg)+low dose dexamethasone (1.25 mg/kg) and PEGPH20 (4.5 mg/kg)+high dose dexamethasone (5 mg/kg). The dose and frequency of the PEGPH20 (or vehicle) intravenous injections was 157,500 Units/kg or approximately 4.5 mg/kg, every 3rd day starting on Day 0 (Days 0, 3, 6, 9, 12) with a total of 5 injections (Q3Dx5) with a dose volume of 0.1 mL. This dosing and frequency regimen was previously shown to inhibit xenograft tumor growth by 34-70%. The doses and frequency of the dexamethasone intraperitonal injections were 1.25 mg/kg at the low dose and 5 mg/kg at the high dose, once a day until Day 13 (QDx13) with a dose volume of 0.1 mL.\nThe tumor volumes of all mice were measured pre-treatment on Day −2 (average tumor volume of ˜500 mm^3) and on Day 1, 6, 9, 13, 16 and 20 by capturing images using the VisualSonic ultrasound system and using an ultrasound imaging software program to calculate tumor volume (Table 12)."}}}
{"smiles": "C[C@@H]1C[C@H]2[C@@H]3CCC4=CC(=O)C=C[C@]4(C)[C@@]3(F)[C@@H](O)C[C@]2(C)[C@@]1(O)C(=O)CO", "note": "[Dexamethasone]", "values": [{"measurement": "Tumor volume", "setting": "[1]; Day 4, PEGPH20 4.5 mg/kg IV x6 and/or dexamethasone 1.25 mg/kg IP QDx17", "result": 463.51, "unit": "mm^3"}, {"measurement": "Tumor volume", "setting": "[1]; Day 4, dexamethasone 5 mg/kg IP QDx17, alone or + PEGPH20 4.5 mg/kg IV x6", "result": 396.26, "unit": "mm^3"}, {"measurement": "Tumor volume", "setting": "[1]; Day 7, PEGPH20 4.5 mg/kg IV x6 and/or dexamethasone 1.25 mg/kg IP QDx17", "result": 609.40, "unit": "mm^3"}, {"measurement": "Tumor volume", "setting": "[1]; Day 7, dexamethasone 5 mg/kg IP QDx17, alone or + PEGPH20 4.5 mg/kg IV x6", "result": 379.39, "unit": "mm^3"}, {"measurement": "% TGI (% Tumor Growth Inhibition)", "setting": "[1]; Day 7, dexamethasone 5 mg/kg alone or + PEGPH20 4.5 mg/kg", "result": 53, "unit": "%"}, {"measurement": "Tumor volume", "setting": "[1]; Day 11, PEGPH20 4.5 mg/kg IV x6 and/or dexamethasone 1.25 mg/kg IP QDx17", "result": 732.92, "unit": "mm^3"}, {"measurement": "Tumor volume", "setting": "[1]; Day 11, dexamethasone 5 mg/kg IP QDx17, alone or + PEGPH20 4.5 mg/kg IV x6", "result": 481.54, "unit": "mm^3"}, {"measurement": "% TGI (% Tumor Growth Inhibition)", "setting": "[1]; Day 11, dexamethasone 5 mg/kg alone or + PEGPH20 4.5 mg/kg", "result": 49, "unit": "%"}, {"measurement": "Tumor volume", "setting": "[1]; Day 14, PEGPH20 4.5 mg/kg IV x6 and/or dexamethasone 1.25 mg/kg IP QDx17", "result": 796.84, "unit": "mm^3"}, {"measurement": "Tumor volume", "setting": "[1]; Day 14, dexamethasone 5 mg/kg IP QDx17, alone or + PEGPH20 4.5 mg/kg IV x6", "result": 603.82, "unit": "mm^3"}, {"measurement": "% TGI (% Tumor Growth Inhibition)", "setting": "[1]; Day 14, dexamethasone 5 mg/kg alone or + PEGPH20 4.5 mg/kg", "result": 46, "unit": "%"}, {"measurement": "Tumor volume", "setting": "[1]; Day 17, PEGPH20 4.5 mg/kg IV x6 and/or dexamethasone 1.25 mg/kg IP QDx17", "result": 933.86, "unit": "mm^3"}, {"measurement": "Tumor volume", "setting": "[1]; Day 17, dexamethasone 5 mg/kg IP QDx17, alone or + PEGPH20 4.5 mg/kg IV x6", "result": 720.95, "unit": "mm^3"}, {"measurement": "% TGI (% Tumor Growth Inhibition)", "setting": "[1]; Day 17, dexamethasone 5 mg/kg alone or + PEGPH20 4.5 mg/kg", "result": 50, "unit": "%"}, {"measurement": "Tumor volume", "setting": "[1]; Day −1 (pre-treatment), PEGPH20 4.5 mg/kg IV x6 and/or dexamethasone 1.25 mg/kg IP QDx17", "result": 312.65, "unit": "mm^3"}, {"measurement": "Tumor volume", "setting": "[1]; Day −1 (pre-treatment), dexamethasone 5 mg/kg IP QDx17, alone or + PEGPH20 4.5 mg/kg IV x6", "result": 231.18, "unit": "mm^3"}, {"measurement": "Tumor volume", "setting": "[1]; Day −4 (pre-treatment), PEGPH20 4.5 mg/kg IV x6 and/or dexamethasone 1.25 mg/kg IP QDx17", "result": 202.85, "unit": "mm^3"}, {"measurement": "Tumor volume", "setting": "[1]; Day −4 (pre-treatment), dexamethasone 5 mg/kg IP QDx17, alone or + PEGPH20 4.5 mg/kg IV x6", "result": 197.29, "unit": "mm^3"}, {"measurement": "Tumor volume", "setting": "[2]; Day 1, PEGPH20 4.5 mg/kg IV Q3Dx5 and/or dexamethasone 1.25 mg/kg IP QDx13", "result": 636.98, "unit": "mm^3"}, {"measurement": "Tumor volume", "setting": "[2]; Day 1, dexamethasone 5 mg/kg IP QDx13, alone or + PEGPH20 4.5 mg/kg IV Q3Dx5", "result": 633.84, "unit": "mm^3"}, {"measurement": "Tumor volume", "setting": "[2]; Day 6, PEGPH20 4.5 mg/kg IV Q3Dx5 and/or dexamethasone 1.25 mg/kg IP QDx13", "result": 727.80, "unit": "mm^3"}, {"measurement": "Tumor volume", "setting": "[2]; Day 6, dexamethasone 5 mg/kg IP QDx13, alone or + PEGPH20 4.5 mg/kg IV Q3Dx5", "result": 854.90, "unit": "mm^3"}, {"measurement": "Tumor volume", "setting": "[2]; Day 9, PEGPH20 4.5 mg/kg IV Q3Dx5 and/or dexamethasone 1.25 mg/kg IP QDx13", "result": 964.35, "unit": "mm^3"}, {"measurement": "Tumor volume", "setting": "[2]; Day 9, dexamethasone 5 mg/kg IP QDx13, alone or + PEGPH20 4.5 mg/kg IV Q3Dx5", "result": 995.47, "unit": "mm^3"}, {"measurement": "Tumor volume", "setting": "[2]; Day 13, PEGPH20 4.5 mg/kg IV Q3Dx5 and/or dexamethasone 1.25 mg/kg IP QDx13", "result": 1202.35, "unit": "mm^3"}, {"measurement": "Tumor volume", "setting": "[2]; Day 13, dexamethasone 5 mg/kg IP QDx13, alone or + PEGPH20 4.5 mg/kg IV Q3Dx5", "result": 1211.50, "unit": "mm^3"}, {"measurement": "Tumor volume", "setting": "[2]; Day 16, PEGPH20 4.5 mg/kg IV Q3Dx5 and/or dexamethasone 1.25 mg/kg IP QDx13", "result": 1401.91, "unit": "mm^3"}, {"measurement": "Tumor volume", "setting": "[2]; Day 16, dexamethasone 5 mg/kg IP QDx13, alone or + PEGPH20 4.5 mg/kg IV Q3Dx5", "result": 1455.27, "unit": "mm^3"}, {"measurement": "Tumor volume", "setting": "[2]; Day 20, PEGPH20 4.5 mg/kg IV Q3Dx5 and/or dexamethasone 1.25 mg/kg IP QDx13", "result": 1792.92, "unit": "mm^3"}, {"measurement": "Tumor volume", "setting": "[2]; Day 20, dexamethasone 5 mg/kg IP QDx13, alone or + PEGPH20 4.5 mg/kg IV Q3Dx5", "result": 1840.11, "unit": "mm^3"}, {"measurement": "Tumor volume", "setting": "[2]; Day −2 (pre-treatment), PEGPH20 4.5 mg/kg IV Q3Dx5 and/or dexamethasone 1.25 mg/kg IP QDx13", "result": 486.88, "unit": "mm^3"}, {"measurement": "Tumor volume", "setting": "[2]; Day −2 (pre-treatment), dexamethasone 5 mg/kg IP QDx13, alone or + PEGPH20 4.5 mg/kg IV Q3Dx5", "result": 516.25, "unit": "mm^3"}]}
